# Literature values as cited in patent US20230000905A1, “IODINE AND POLYOL COMPOSITION, METHOD, AND USE” (priority 2020, published 2023).
# Tested on: rhinovirus
# Details: molecular iodine at the tested concentrations
compound,measurement,value
II [molecular iodine],time to inactivate rhinovirus,30 s
